Experimental data as given in patent publication US9873693B2 (Sunesis Pharmaceuticals, Inc., priority 2006, dated 2018).

What was measured:
[1] = target: dephosphorylated PDK1 (Homo sapiens (Human), UniProt O15530); test: PDK1 kinase assay (coupled PDK1/AKT/FAM-crosstide, IMAP); assay type: biochemical; details: 25 nM un-phosphorylated PDK1, 24 μM ATP; read-out: Inhibition of dephospo-PDK1 in vitro IC50
Experimental: A PDK1 kinase assay was performed as follows. PDK1 (amino acids 51-360) and AKT2 (amino acids 140-467 fused to PIFtide, amino acids […]) were expressed as N-terminally tagged GST fusion proteins in insect cells and purified to greater than 90% homogeneity. PDK1 protein was divided into two fractions, one of which was subsequently dephosphorylated. To generate dephosphorylated PDK1, the PDK1 was reacted with GST-tagged lambda-phosphatase in vitro. GST was subsequently cleaved proteolytically for both phosphorylated and dephosphorylated PDK1. Protein preparations were run on glutathione Sepharose columns to remove GST and GST-tagged lambda-phosphatase, if present. Phosphorylated PDK1 and dephosphorylated PDK1 were verified by mass-spectrometry. Enzyme activity was determined in a coupled PDK1/AKT/FAM-crosstide assay using either phosphorylated or unphosphorylated PDK1 and phosphorylation of FAM-crosstide was determined by standard IMAP protocol (Molecular Devices). For inhibition studies, compounds were titrated 3-fold in DMSO and diluted 40-fold into assay buffer (10 mM Tris HCl pH7.2; 10 mM MgCl2; 0.01% Triton X-100; 1 mM DTT) containing PDK1, AKT2, and FAM-crosstide. (final concentrations: 25 nM un-phosphorylated PDK1 or 0.5 nM phosphorylated PDK1, 30 nM unphosphorylated AKT2, and 100 nM crosstide substrate). The kinase reaction was initiated by adding ATP to a final concentration of 24 μM for both forms of PDK1 and incubated at 25° C. for 30 min. To detect assay product, the kinase reaction was combined with Progressive Binding Solution (1:600 Progressive Binding Reagent, 50% Buffer A, 50% Buffer B, Molecular Devices) in a 1:3 ratio. The mixture was incubated for 2 hours at 25° C. and the plate was scanned on an Analyst AD with excitation at 485 nm and emission at 530 nm. The fluorescence polarization value “P” is defined by the equation below. The value “mP” is generated by multiplying the P value for each reaction well by a factor of 1000. The value “ΔmP” for each well is the mP value for that well minus the mP value for the average negative control. P=(Fpar−Fperp)/(Fpar+Fperp) Eq.:
Where “par” is fluorescence intensity parallel to the excitation plane; and “perp” is fluorescence intensity perpendicular to the excitation plane. ΔmP values were plotted as a function of compound concentration and the data were analyzed with a 4-parameter fit using GraphPad Prism software.

[2] = target: phosphorylated PDK1 (Homo sapiens (Human), UniProt O15530); test: as above; assay type: biochemical; details: 0.5 nM phosphorylated PDK1, 24 μM ATP; read-out: Inhibition of phospo-PDK1 in vitro IC50
Sequence of phosphorylated PDK1 (O15530 51-360): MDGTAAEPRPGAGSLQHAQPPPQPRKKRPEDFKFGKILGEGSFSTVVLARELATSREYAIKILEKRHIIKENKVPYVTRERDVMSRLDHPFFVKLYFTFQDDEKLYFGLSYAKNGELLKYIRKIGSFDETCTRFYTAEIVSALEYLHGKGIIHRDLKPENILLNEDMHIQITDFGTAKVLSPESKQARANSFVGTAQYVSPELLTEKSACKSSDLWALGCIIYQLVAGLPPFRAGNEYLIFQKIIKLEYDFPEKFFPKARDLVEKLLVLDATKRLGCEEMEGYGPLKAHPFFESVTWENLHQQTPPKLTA

[3] = test system: phospho-akt (Thr308); test: phospho-akt (Thr308) MSD ELISA in PC-3 cells; assay type: cell-based; details: Homo sapiens, PC-3, 2 h, PC-3 cells, 2 hours, no serum; read-out: Inhibition of P308 Akt in cells using MSD EC50
Method in brief: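 Read-out is MSD electrochemiluminescence after lysate capture overnight at 4 degrees and 1 hr RT detection-antibody step. Before lysis, overnight-plated PC-3 cells received three-fold serial dilutions of inhibitor in serum-free medium, with DMSO-only high controls.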

Sequence of dephosphorylated PDK1 (O15530 51-360): as above

| SMILES | IC50 [1] [nM] | IC50 [2] [nM] | EC50 [3] [nM] |
| --- | --- | --- | --- |
| Nc1ncnc2[nH]nc(-c3cccc(CNC(=O)c4cccn(Cc5ccc(F)c(F)c5)c4=O)c3)c12 [Cpd 5] | < 500 | < 500 | – |
| O=C(NCc1cccc(-c2c[nH]c3ncccc23)c1)c1cccc(Nc2ccccc2)n1 [Cpd 54] | < 500 | < 500 | – |
| O=C(NCc1cccc(-c2c[nH]c3ncc(-c4ccco4)cc23)c1)c1cccn(Cc2ccc(F)c(F)c2)c1=O [Cpd 57] | < 500 | < 500 | – |
| CC(=O)Nc1cc(NCCCCCNC(=O)c2cccn(Cc3cccc(Cl)c3)c2=O)ncn1 [Cpd 99] | 500 to 10000 | > 10000 | – |
| O=C(NCCCCCNc1nc2ccccc2o1)c1cccn(Cc2cccc(Cl)c2)c1=O [Cpd 100] | 500 to 10000 | > 10000 | – |
| COc1ccnc(NCCCCCNC(=O)c2cccn(Cc3cccc(Cl)c3)c2=O)n1 [Cpd 101] | 500 to 10000 | 500 to 10000 | – |
| COc1ccnc(NCC/C=C/CCNC(=O)c2cccn(Cc3cccc(Cl)c3)c2=O)n1 [Cpd 103, 1-(3,4-Difluoro-benzyl)-2-oxo-1,2-dihydro-pyridine-3-carboxylic acid 3-(4-amino-1H-pyrazolo[3,4-d]pyrimidin-3-yl)-benzylamides] | < 500 | 500 to 10000 | – |
| COc1ccnc(NCCCCCNC(=O)c2cccn(Cc3ccc(Cl)c(Cl)c3)c2=O)n1 [Cpd 104] | < 500 | 500 to 10000 | – |
| COc1ccnc(NCCCCCNC(=O)c2cccn(C(C)c3ccc(Cl)cc3)c2=O)n1 (stereo not shown) [Cpd 105] | < 500 | 500 to 10000 | – |
| COc1ccnc(NCCC#CCCNC(=O)c2cc(Cl)cn(C(C)c3ccc(Cl)cc3)c2=O)n1 (stereo not shown) [Cpd 106] | < 500 | < 500 | – |
| COc1ccnc(NCCCCCNC(=O)c2cccn(Cc3ccc(F)c(F)c3)c2=O)n1 [Cpd 107] | < 500 | 500 to 10000 | – |
| O=C(NCCCCCc1c[nH]c2ncccc12)c1cccn(Cc2cccc(Cl)c2)c1=O [Cpd 108] | 500 to 10000 | 500 to 10000 | – |
| O=C1CC(c2cccc(CNC(=O)c3cccn(Cc4ccc(F)c(F)c4)c3=O)c2)CN1 (stereo not shown) [Cpd 111] | 500 to 10000 | 500 to 10000 | – |
| C[C@@H](NC(=O)c1cccn(Cc2ccc(F)c(F)c2)c1=O)c1nc(-c2c[nH]c3ncccc23)cs1 [Cpd 114] | < 500 | < 500 | – |
| Cc1nc(CNC(=O)c2cccn(Cc3ccc(F)c(F)c3)c2=O)sc1-c1c[nH]c2ncccc12 [Cpd 115] | < 500 | 500 to 10000 | – |
| O=C(NCc1nc(-c2c[nH]c3ncccc23)c[nH]1)c1cccn(Cc2ccc(F)c(F)c2)c1=O [Cpd 116] | < 500 | 500 to 10000 | – |
| O=C(NCCSc1ccc2[nH]c(=O)[nH]c2c1)c1cccn(Cc2ccc(F)c(F)c2)c1=O [Cpd 117] | 500 to 10000 | 500 to 10000 | – |
| O=C(NCCSc1ccc2[nH]c(=O)[nH]c2c1)c1cccn(Cc2ccc(F)c(F)c2)c1=O [Cpd 118] | < 500 | 500 to 10000 | – |
| Cn1c(=O)[nH]c2cc(OCCNC(=O)c3cccn(Cc4ccc(F)c(F)c4)c3=O)ccc21 [Cpd 119, N-(3-(4-chloro-H-pyrrolo[2,3-b]pyridin-3-yl)benzyl)-1-(3,4-difluorobenzyl)-2-oxo-1,2-dihydropyridine-3-carboxamide] | < 500 | < 500 | – |
| O=C(NCc1ncc(-c2c[nH]c3ncccc23)o1)c1cccn(Cc2ccc(F)c(F)c2)c1=O [Cpd 120] | < 500 | < 500 | – |
| NC(=O)Nc1ccc(OCCNC(=O)c2cccn(Cc3ccc(F)c(F)c3)c2=O)cc1 [Cpd 122] | < 500 | 500 to 10000 | – |
| O=C(NCc1nnc(-c2c[nH]c3ncccc23)s1)c1cccn(Cc2ccc(F)c(F)c2)c1=O [Cpd 124] | < 500 | < 500 | – |
| O=C(NCCOc1ccc2c(c1)[nH]c(=O)n2CCN1CCCC1)c1cccn(Cc2ccc(F)c(F)c2)c1=O [Cpd 130] | 500 to 10000 | 500 to 10000 | – |
| O=C(NCc1cc(-c2c[nH]c3ncccc23)[nH]n1)c1cccn(Cc2ccc(F)c(F)c2)c1=O [Cpd 142] | < 500 | < 500 | – |
| O=C(NCCOc1cc2[nH]c(=O)[nH]c2cc1F)c1cccn(Cc2ccc(F)c(F)c2)c1=O [Cpd 155] | < 500 | 500 to 10000 | – |
| CNC(=O)[C@H](COc1ccc2[nH]c(=O)[nH]c2c1)NC(=O)c1cccn(Cc2cc(F)c(F)c(F)c2)c1=O [Cpd 157] | < 500 | < 500 | – |

| SMILES | IC50 [1] [nM] | IC50 [2] [nM] | EC50 [3] [nM] |
| --- | --- | --- | --- |
| O=C(NCCOc1cc(F)c2[nH]c(=O)[nH]c2c1)c1cccn(Cc2ccc(F)c(F)c2)c1=O [Cpd 158] | < 500 | 500 to 10000 | – |
| O=C(Nc1cccc(-c2ccc3[nH]c(=O)[nH]c3c2)c1)c1cccn(Cc2ccc(F)c(F)c2)c1=O [Cpd 162] | < 500 | 500 to 10000 | – |
| O=C1Cc2ccc(/C=C/CNC(=O)c3cc(I)cn(Cc4cc(F)c(F)c(F)c4)c3=O)cc2N1 [Cpd 178] | < 500 | < 500 | – |
| O=C(N[C@H](COc1ccc2[nH]c(=O)[nH]c2c1)C1CCOC1)c1cccn(Cc2cc(F)c(F)c(F)c2)c1=O (stereo partly shown) [Cpd 185] | < 500 | < 500 | – |
| Nc1ccc(-c2cccc(CNC(=O)c3cccn(Cc4ccc(F)c(F)c4)c3=O)c2)cn1 [Cpd 214] | 500 to 10000 | – | – |
| O=C(NCc1cccc(-c2cc(=O)[nH][nH]2)c1)c1cccn(Cc2ccc(F)c(F)c2)c1=O [Cpd 217] | 500 to 10000 | > 10000 | – |
| O=C(NCc1cccc(-c2ccc3nsnc3c2)c1)c1cccn(Cc2ccc(F)c(F)c2)c1=O [Cpd 218] | 500 to 10000 | > 10000 | – |
| O=C(NCc1cccc(-c2ccc3nonc3c2)c1)c1cccn(Cc2ccc(F)c(F)c2)c1=O [Cpd 219] | 500 to 10000 | > 10000 | – |
| O=C(NCc1cccc(-c2cc[nH]c(=O)c2)c1)c1cccn(Cc2ccc(F)c(F)c2)c1=O [Cpd 224] | 500 to 10000 | – | – |
| O=C(NS(=O)(=O)c1ccc(-c2c[nH]c3ncccc23)s1)c1cccn(Cc2ccc(F)c(F)c2)c1=O [Cpd 231] | 500 to 10000 | 500 to 10000 | – |
| CNC(=O)C[C@@H](NC(=O)c1cccn(Cc2ccc(F)c(F)c2)c1=O)c1ncc(-c2c[nH]c3ncccc23)o1 [Cpd 248] | < 500 | – | – |
| Nc1cnc(Nc2cccc(NC(=O)N3CCCC3)c2)nc1NCCCCCCNC(=O)c1cccn(Cc2cccc(Cl)c2)c1=O [Cpd 249] | < 500 | > 10000 | – |
| COc1ccnc(NCCCCCNC(=O)c2cc(Cl)cn(Cc3ccc(Cl)cc3)c2=O)n1 [Cpd 252] | < 500 | 500 to 10000 | – |
| COc1ccnc(NCCCCCNC(=O)c2cc(Br)cn(Cc3cccc(F)c3)c2=O)n1 [Cpd 253] | < 500 | 500 to 10000 | – |
| COc1ccnc(NCCCCCNC(=O)c2cccn(C(C)c3ccc(Cl)cc3)c2=O)n1 (stereo not shown) [Cpd 254] | < 500 | 500 to 10000 | – |
| COc1ccnc(NCCC#CCCNC(=O)c2cccn(Cc3ccc(Cl)c(Cl)c3)c2=O)n1 [Cpd 255] | < 500 | < 500 | – |
| COc1ccnc(NCCC#CCCNC(=O)c2cc(Cl)cn(Cc3ccc(Cl)cc3)c2=O)n1 [Cpd 256] | < 500 | 500 to 10000 | – |
| CCc1ccnc(NCCC#CCCNC(=O)c2cc(Cl)cn(Cc3cccc(Cl)c3)c2=O)n1 [Cpd 257] | < 500 | < 500 | – |
| COc1ccnc(NCCC#CCCNC(=O)c2cc(F)cn(Cc3cccc(F)c3)c2=O)n1 [Cpd 258] | < 500 | < 500 | – |
| COc1ccnc(NCCC#CCCNC(=O)c2cccn([C@H](C)c3ccc(Cl)cc3)c2=O)n1 [Cpd 259] | < 500 | < 500 | – |
| COc1ccnc(NCCCCCCNC(=O)c2cccn(Cc3cccc(F)c3)c2=O)n1 [Cpd 261] | < 500 | 500 to 10000 | – |
| COc1ccnc(NCCC#CCNC(=O)c2cccn(Cc3cccc(Cl)c3)c2=O)n1 [Cpd 262] | < 500 | < 500 | – |
| COc1ccnc(NCCCCCNC(=O)c2cccn(Cc3cc(F)c(F)c(F)c3)c2=O)n1 [Cpd 267] | < 500 | – | – |
| O=C(Nc1cccn(Cc2ccc(F)c(F)c2)c1=O)c1cccc(-c2c[nH]c3ncccc23)c1 [Cpd 288] | < 500 | – | – |
| O=C(NCc1cccc(-c2cccc3[nH]ncc23)c1)c1cccn(Cc2ccc(F)c(F)c2)c1=O [Cpd 329] | 500 to 10000 | – | > 5000 |
